In patent publication US9914722B2, “Compounds for treating spinal muscular atrophy” (PTC Therapeutics Inc., priority 2012, dated 2018):

Experiments:
[1] = system: full length SMN2 minigene mRNA containing SMN2 exon 7 (SMN2-A minigene); test: SMN2 minigene mRNA splicing RT-qPCR assay in cultured cells; assay type: cell-based, human; conditions: Homo sapiens, HEK293-H; HEK293H cells stably transfected with SMN2-A minigene, 24 hours, 7-point concentration curve; concentration giving 1.5-fold SMN2 full length mRNA vs vehicle; read-out: EC1.5x for production of full length SMN2 mRNA
Protocol: SMN2 Minigene mRNA Splicing RT-qPCR Assay in Cultured Cells
The reverse transcription-quantitative PCR-based (RT-qPCR) assay is used to quantify the level of the full length SMN2 minigene mRNA containing SMN2 exon 7 in a HEK293H cell line stably transfected with said minigene and treated with a test compound.
Protocol. HEK293H cells stably transfected with the SMN2-A minigene construct described above (10,000 cells/well) are seeded in 200 μL of cell culture medium (DMEM plus 10% FBS, with 200 μg/mL hygromycin) in 96-well flat-bottom plates and the plate is immediately swirled to ensure proper dispersal of cells, forming an even monolayer of cells. Cells are allowed to attach for at least 4-6 hours. Test compounds are serially diluted 3.16-fold in 100% DMSO to generate a 7-point concentration curve. A solution of test compound (1 μL, 200× in DMSO) is added to each cell-containing well and the plate is incubated for 24 hours in a cell culture incubator (37° C., 5% CO2, 100% relative humidity). Two replicates are prepared for each test compound concentration. The cells are then lysed in Cells-To-Ct lysis buffer and the lysate is stored at −80° C.
Primer SMN Forward A (SEQ ID NO. 1) hybridizes to a nucleotide sequence in exon 7 (nucleotide 22 to nucleotide 40), primer SMN Reverse A (SEQ ID NO. 2) hybridizes to a nucleotide sequence in the coding sequence of Firefly luciferase, SMN Probe A (SEQ ID NO. 3) hybridizes to a nucleotide sequence in exon 7 (nucleotide 50 to nucleotide 54) and exon 8 (nucleotide 1 to nucleotide 21). The combination of these three oligonucleotides detects only SMN1 or SMN2 minigenes (RT-qPCR) and will not detect endogenous SMN1 or SMN2 genes.
The SMN forward and reverse primers are used at final concentrations of 0.4 μM. The SMN probe is used at a final concentration of 0.15 μM. The GAPDH primers are used at final concentrations of 0.2 μM and the probe at 0.15 μM.
The SMN2-minigene GAPDH mix (15 μL total volume) is prepared by combining 7.5 μL of 2×RT-PCR buffer, 0.4 μL of 25×RT-PCR enzyme mix, 0.75 μL of 20×GAPDH primer-probe mix, 4.0075 μL of water, 2 μL of 10-fold diluted cell lysate, 0.06 μL of 100 μM SMN forward primer, 0.06 μL of 100 μM SMN reverse primer, and 0.225 μL of 100 μM SMN probe.
PCR is carried out at the following temperatures for the indicated time: Step 1: 48° C. (15 min); Step 2: 95° C. (10 min); Step 3: 95° C. (15 sec); Step 4: 60° C. (1 min); then repeat Steps 3 and 4 for a total of 40 cycles.
Each reaction mixture contains both SMN2-A minigene and GAPDH primers/probe sets (multiplex design), allowing simultaneous measurement of the levels of two transcripts.
Two SMN spliced products are generated from the SMN2 minigene. The first spliced product containing exon 7, corresponding to SMN2 full length mRNA, is referred to herein using the term “SMN2 minigene FL.” The second spliced product lacking exon 7 is referred to herein using the term “SMN2 minigene Δ7.”
The increase of SMN2 minigene FL mRNA relative to that in cells treated with vehicle control is determined from real-time PCR data using a modified ΔΔCt method (as described in Livak and Schmittgen, Methods, 2001, 25:402-8). The amplification efficiency (E) is calculated from the slope of the amplification curve for SMN2 minigene FL and GAPDH mRNA individually. The abundance of SMN2 minigene FL and GAPDH mRNA are then calculated as (1+E)^−Ct, where Ct is the threshold value for each amplicon. The abundance of SMN2 minigene FL is normalized to GAPDH abundance. The normalized SMN2 minigene FL abundance from test compound-treated samples is then divided by normalized SMN2 minigene FL abundance from vehicle-treated cells to determine the level of SMN2 FL mRNA relative to vehicle control. […]

[2] = system: Smn protein; test: Smn protein assay (Smn HTRF) in cultured cells; assay type: cell-based, human; conditions: Homo sapiens, Fibroblast, GM03813 SMA Type 1 patient fibroblasts, 48 hours, HTRF; for maximal fold induction: 7-point concentration data, relative to vehicle, read-out: maximum fold (Fold) increase of Smn protein; for EC (1.5-fold): concentration producing 1.5 times Smn protein vs DMSO vehicle, read-out: EC1.5x for Smn protein expression
Protocol: Smn Protein Assay in Cultured Cells
The Smn HTRF (homogeneous time resolved fluorescence) assay is used to quantify the level of Smn protein in SMA patient fibroblast cells treated with test compounds.
Protocol. Cells are thawed and cultured in DMEM-10% FBS for 72 hours. Cells are trypsinized, counted and re-suspended to a concentration of 25,000 cells/mL in DMEM-10% FBS. The cell suspension is plated at 5,000 cells per well in a 96 well microtiter plate and incubated for 3 to 5 hours. […] Test compounds are serially diluted 3.16-fold in 100% DMSO to generate a 7-point concentration curve. 1 μL of test compound solution is transferred to cell-containing wells and cells are incubated for 48 hours in a cell culture incubator (37° C., 5% CO2, 100% relateive humidity). Triplicate samples are set up for each test compound concentration. After 48 hours, the supernatant is removed from the wells and 25 μL of the RIPA lysis buffer, containing protease inhibitors, is added to the wells and incubated with shaking at room temperature for 1 hour. 25 μL of the diluent is added and then 35 μL of the resulting lysate is transferred to a 384-well plate, where each well contains 5 μL of the antibody solution (1:100 dilution of anti-SMN d2 and anti-SMN kryptate in SMN reconstitution buffer). The plate is centrifuged for 1 minute to bring the solution to the bottom of the wells, then incubated overnight at room temperature. Fluorescence for each well of the plate at 665 nm and 620 nm is measured on an EnVision multilabel plate reader (Perkin-Elmer).
The normalized fluorescence signal is calculated for each sample, Blank and vehicle control well by dividing the signal at 665 nm by the signal at 620 nm. Normalizing the signal accounts for possible fluorescence quenching due to the matrix effect of the lysate. The AF value (a measurement of Smn protein abundance as a percent value) for each sample well is calculated by subtracting the normalized average fluorescence for the Blank control wells from the normalized fluorescence for each sample well, then dividing this difference by the normalized average fluorescence for the Blank control wells and multiplying the resulting value by 100. The ΔF value for each sample well represents the Smn protein abundance from test compound-treated samples. The ΔF value for each sample well is divided by the ΔF value for the vehicle control wells to calculate the fold increase in Smn protein abundance relative to the vehicle control.
For compounds of Formula (I) or a form thereof disclosed herein, Table 9 provides the EC1.5x for Smn protein expression that was obtained from the 7-point concentration data generated for each test compound according to the procedure of Biological Example 7. The term “EC1.5x for Smn protein expression” is defined as that concentration of test compound that is effective in producing 1.5 times the amount of Smn protein in an SMA patient fibroblast cell compared to the amount produced from the DMSO vehicle control. An EC1.5x for Smn protein expression between >3 μM and ≦10 μM is indicated by one star (*), an EC1.5x between >1 μM and ≦3 μM is indicated by two stars (**), an EC1.5x between >0.3 μM and ≦1 μM is indicated by three stars (***) and an EC1.5x≦0.3 μM is indicated by four stars (****).
For compounds of Formula (I) or a form thereof disclosed herein, Table 10 provides the maximum fold (Fold) increase of Smn protein that was obtained from the 7-point concentration data generated for each test compound according to the procedure of Biological Example 7. A maximum fold increase ≦1.2 is indicated by one star (*), a fold increase between >1.2 and ≦1.35 is indicated by two stars (**), a fold increase between >1.35 and ≦1.5 is indicated by three stars (***), a fold increase between >1.5 and ≦1.65 is indicated by four stars (****) and a fold increase >1.65 is indicated by five stars (*****).

melting point | SMILES | EC (1.5-fold) [1] | maximal fold induction [2] | EC (1.5-fold) [2]
210 to 215 °C | C[C@@H]1CN(c2ccc3oc(-c4cn5ccccc5n4)cc(=O)c3c2)CCN1 [Cpd 16, 2-(imidazo[1,2-a]pyridin-2-yl)-6-[(3R)-3-methylpiperazin-1-yl]-4H-chromen-4-one] | 1 to 3 µM | > 1.65 | 1 to 3 µM
180 to 190 °C | O=c1cc(-c2cc(F)cc(F)c2)oc2ccc(N3CCNCC3)cc12 [Cpd 79, 2-(3,5-difluorophenyl)-6-(piperazin-1-yl)-4H-chromen-4-one] | ≤ 0.1 µM | 1.35 to 1.5 | 3 to 10 µM
155 to 160 °C | COc1ccc(-c2cc(=O)c3cc(N4CCN[C@@H](C)C4)ccc3o2)cc1 [Cpd 63, 2-(4-methoxyphenyl)-6-[(3S)-3-methylpiperazin-1-yl]-4H-chromen-4-one] | 0.1 to 0.3 µM | 1.5 to 1.65 | 0.3 to 1 µM
174 to 176 °C | COc1ccc(-c2cc(=O)c3cc(N4CCN[C@@H](C)C4)ccc3o2)cc1C [Cpd 52, 2-(4-methoxy-3-methylphenyl)-6-[(3S)-3-methylpiperazin-1-yl]-4H-chromen-4-one] | 0.1 to 0.3 µM | 1.35 to 1.5 | 
98 to 100 °C | COc1ccc(-c2cc(=O)c3cc(N4CCNCC4)ccc3o2)cc1C [Cpd 51, 2-(4-methoxy-3-methylphenyl)-6-(piperazin-1-yl)-4H-chromen-4-one] | 0.3 to 1 µM | 1.35 to 1.5 | 
138 to 140 °C | C[C@H]1CN(c2ccc3oc(-c4ccc(OC(F)(F)F)cc4)cc(=O)c3c2)CCN1 [Cpd 65, 6-[(3S)-3-methylpiperazin-1-yl]-2-[4-(trifluoromethoxy)phenyl]-4H-chromen-4-one] | 1 to 3 µM | ≤ 1.2 | 
184 to 186 °C | COc1ccc(-c2cc(=O)c3cc(N4CCN(C)CC4)ccc3o2)cc1OC [Cpd 21, 2-(3,4-dimethoxyphenyl)-6-(4-methylpiperazin-1-yl)-4H-chromen-4-one] | 0.3 to 1 µM | > 1.65 | 1 to 3 µM
170 to 172 °C | C[C@H]1CN(c2ccc3oc(-c4cccc(F)c4)cc(=O)c3c2)CCN1 [Cpd 77, 2-(3-fluorophenyl)-6-[(3S)-3-methylpiperazin-1-yl]-4H-chromen-4-one] | 0.1 to 0.3 µM | 1.5 to 1.65 | 0.3 to 1 µM
175 to 178 °C | C[C@H]1CN(c2ccc3oc(-c4cc(F)cc(F)c4)cc(=O)c3c2)CCN1 [Cpd 80, 2-(3,5-difluorophenyl)-6-[(3S)-3-methylpiperazin-1-yl]-4H-chromen-4-one] | ≤ 0.1 µM | 1.5 to 1.65 | 0.3 to 1 µM
181 to 183 °C | COc1ccc(-c2cc(=O)c3cc(N4CCN[C@H](C)C4)ccc3o2)cc1OC [Cpd 23, 2-(3,4-dimethoxyphenyl)-6-[(3R)-3-methylpiperazin-1-yl]-4H-chromen-4-one] | 0.1 to 0.3 µM | 1.5 to 1.65 | 0.3 to 1 µM
176 to 178 °C | COc1ccc(-c2cc(=O)c3cc(N4C[C@@H](C)N[C@@H](C)C4)ccc3o2)cc1Cl [Cpd 60, 2-(3-chloro-4-methoxyphenyl)-6-[(3R,5S)-3,5-dimethylpiperazin-1-yl]-4H-chromen-4-one] | 0.1 to 0.3 µM | > 1.65 | 1 to 3 µM
142 to 146 °C | COc1ccc(-c2cc(=O)c3cc(N4CCN[C@@H](C)C4)ccc3o2)cc1OC(F)(F)F [Cpd 70, 2-[4-methoxy-3-(trifluoromethoxy)phenyl]-6-[(3S)-3-methylpiperazin-1-yl]-4H-chromen-4-one] | 0.3 to 1 µM | 1.2 to 1.35 | 
200 to 202 °C | C[C@@H]1CN(c2ccc3oc(-c4nc5ccccc5s4)cc(=O)c3c2)C[C@H](C)N1 [Cpd 34, 2-(1,3-benzothiazol-2-yl)-6-[(3R,5S)-3,5-dimethylpiperazin-1-yl]-4H-chromen-4-one] | 0.3 to 1 µM | 1.35 to 1.5 | 

SMILES | melting point | EC (1.5-fold) [1] | maximal fold induction [2] | EC (1.5-fold) [2]
C[C@@H]1CN(c2ccc3oc(-c4cccnc4)cc(=O)c3c2)CCN1 [Cpd 11, 6-[(3R)-3-methylpiperazin-1-yl]-2-(pyridin-3-yl)-4H-chromen-4-one] | 148 to 150 °C | 0.3 to 1 µM | 1.35 to 1.5 | 3 to 10 µM
